Legend:
Assay type in all cases: functional
Bacillus pumilus = assay: Antibacterial activity against Bacillus pumilus ATCC63202 by broth microdilution method
Staphylococcus aureus [1] = assay: Antibacterial activity against […] Staphylococcus aureus ATCC25923 by broth microdilution method
Staphylococcus aureus [2] = assay: Antibacterial activity against methicillin-resistant Staphylococcus aureus ATCC43300 by broth microdilution method
Pseudomonas aeruginosa = assay: Antibacterial activity against Pseudomonas aeruginosa ATCC27853 by broth microdilution method
Escherichia coli = assay: Antibacterial activity against Escherichia coli ATCC25922 by broth microdilution method

MIC (Bacillus pumilus) [µg/mL] | MIC (Staphylococcus aureus [1]) [µg/mL] | MIC (Staphylococcus aureus [2]) [µg/mL] | MIC (Pseudomonas aeruginosa) [µg/mL] | MIC (Escherichia coli) [µg/mL] | SMILES
≥ 128 | ≥ 128 | ≥ 128 | ≥ 128 | ≥ 128 | CCCCCCCCC(=O)NC[C@@H](C)C(=O)NCC(=O)N[C@H](CCC(=O)O)C(=O)N[C@@H](Cc1ccc(O)cc1)C(=O)N[C@@H]1C(=O)N[C@H]([C@H](C)CC)C(=O)N[C@@H](CC(=O)O)C(=O)N[C@@H]([C@@H](O)C(=O)O)C(=O)N2CCC[C@H]2C(=O)NCC(=O)N[C@H](CCC(=O)O)C(=O)N[C@@H](CCC(=O)O)C(=O)N(C)CC(=O)O[C@@H]1C
≥ 128 | ≥ 128 | ≥ 128 | ≥ 128 | ≥ 128 | CCCCCCCC(=O)NC[C@@H](C)C(=O)NCC(=O)N[C@H](CCC(=O)O)C(=O)N[C@@H](Cc1ccc(O)cc1)C(=O)N[C@@H]1C(=O)N[C@H]([C@H](C)CC)C(=O)N[C@@H](CC(=O)O)C(=O)N[C@@H](CC(=O)O)C(=O)N2CCC[C@H]2C(=O)NCC(=O)N[C@H](CCC(=O)O)C(=O)N[C@@H](CCC(=O)O)C(=O)N(C)CC(=O)O[C@@H]1C
≥ 128 | ≥ 128 | ≥ 128 | ≥ 128 | ≥ 128 | CCCCCCCCCC(=O)NC[C@@H](C)C(=O)NCC(=O)N[C@H](CCC(=O)O)C(=O)N[C@@H](Cc1ccc(O)cc1)C(=O)N[C@@H]1C(=O)N[C@H]([C@H](C)CC)C(=O)N[C@@H](CC(=O)O)C(=O)N[C@@H]([C@@H](O)C(=O)OC)C(=O)N2CCC[C@H]2C(=O)NCC(=O)N[C@H](CCC(=O)O)C(=O)N[C@@H](CCC(=O)O)C(=O)N(C)CC(=O)O[C@@H]1C
≥ 128 | ≥ 128 | ≥ 128 | ≥ 128 | ≥ 128 | CCCCCCCCC(=O)NC[C@@H](C)C(=O)NCC(=O)N[C@H](CCC(=O)O)C(=O)N[C@@H](Cc1ccc(O)cc1)C(=O)N[C@@H]1C(=O)N[C@H]([C@H](C)CC)C(=O)N[C@@H](CC(=O)O)C(=O)N[C@@H]([C@@H](O)C(=O)OC)C(=O)N2CCC[C@H]2C(=O)NCC(=O)N[C@H](CCC(=O)O)C(=O)N[C@@H](CCC(=O)O)C(=O)N(C)CC(=O)O[C@@H]1C
≥ 128 | ≥ 128 | ≥ 128 | ≥ 128 | ≥ 128 | CCCCCCCCCC(=O)NC[C@@H](C)C(=O)NCC(=O)N[C@H](CCC(=O)O)C(=O)N[C@@H](Cc1ccc(O)cc1)C(=O)N[C@@H]1C(=O)N[C@H]([C@H](C)CC)C(=O)N[C@@H](CC(=O)O)C(=O)N[C@@H]([C@@H](O)C(=O)O)C(=O)N2CCC[C@H]2C(=O)NCC(=O)N[C@H](CCC(=O)O)C(=O)N[C@@H](CCC(=O)O)C(=O)N(C)CC(=O)O[C@@H]1C
≤ 5 | ≤ 5 | ≤ 5 | ≤ 5 | ≤ 5 | CCCCCCCCCC(=O)N[C@@H](Cc1c[nH]c2ccccc12)C(=O)N[C@H](CC(N)=O)C(=O)N[C@@H](CC(=O)O)C(=O)N[C@@H]1C(=O)NCC(=O)N[C@@H](CCCN)C(=O)N[C@@H](CC(=O)O)C(=O)N[C@H](C)C(=O)N[C@@H](CC(=O)O)C(=O)NCC(=O)N[C@H](CO)C(=O)N[C@@H]([C@H](C)CC(=O)O)C(=O)N[C@@H](CC(=O)c2ccccc2N)C(=O)O[C@@H]1C
